Measured values published in patent publication US7632811B2, “Analogs of parathyroid hormone” (Societe de Conseils de Recherches et D'Applications …, priority 1995, dated 2009).
Read-outs that look alike come from different tables or passages of the source. Non-standard residues stand in square brackets, D forms with d. Residues, ends and D or L forms follow the SMILES beside them. Cha = N[C@@H](CC1CCCCC1)C(=O)O; Ac6c = NC1(C(=O)O)CCCCC1; Nle = CCCC[C@H](N)C(=O)O; Aib = CC(C)(N)C(=O)O

Target: T1, PTH receptor present on SaOS-2 (human osteosarcoma cells) (Homo sapiens, UniProt Q03431)
T1 construct: host or cells: SaOS-2 human osteosarcoma cells (intact, confluent monolayers)
T1 sequence (Q03431 27-593): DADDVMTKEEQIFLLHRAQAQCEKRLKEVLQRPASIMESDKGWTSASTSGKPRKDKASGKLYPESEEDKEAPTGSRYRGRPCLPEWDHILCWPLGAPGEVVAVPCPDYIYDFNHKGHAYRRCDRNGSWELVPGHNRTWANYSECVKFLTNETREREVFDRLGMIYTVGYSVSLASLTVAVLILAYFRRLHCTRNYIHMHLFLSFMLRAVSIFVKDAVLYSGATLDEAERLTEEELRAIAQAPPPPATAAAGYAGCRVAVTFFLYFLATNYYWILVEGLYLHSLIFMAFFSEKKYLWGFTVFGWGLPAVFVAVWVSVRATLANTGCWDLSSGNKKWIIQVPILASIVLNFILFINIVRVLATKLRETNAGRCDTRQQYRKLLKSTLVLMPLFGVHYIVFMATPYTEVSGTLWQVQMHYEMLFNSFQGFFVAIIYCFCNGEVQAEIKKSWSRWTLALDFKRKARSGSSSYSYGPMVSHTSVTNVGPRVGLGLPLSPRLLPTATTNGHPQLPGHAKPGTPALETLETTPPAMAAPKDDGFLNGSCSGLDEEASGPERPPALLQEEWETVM
Experiment: Binding to PTH receptor on SaOS-2 cells (competition with mono-125I-[Nle8,18,Tyr34(3-125I)]bPTH(1-34)NH2)
Conditions: 2 hrs at room temperature, read-out: Kd (half maximal inhibition of binding of mono-125I-[Nle8,18, Tyr34(3-125I)]bPTH(1-34)NH2)
Description: A. Binding to PTH Receptor
The peptides of the invention were tested for their ability to bind to the PTH receptor present on SaOS-2 (human osteosarcoma cells). SaOS-2 cells (American Type Culture Collection, Rockville, Md.; ATCC #HTB 85) were maintained in RPMI 1640 medium (Sigma, St. Louis, Mo.) supplemented with 10% fetal bovine serum (FBS) and 2 mM glutamine at 37EC in a humidified atmosphere of 5% CO2 in air. The medium was changed every three or four days, and the cells were subcultured every week by trypsinization.
SaOS-2 cells were maintained for four days until they had reached confluence. The medium was replaced with 5% FBS in RPMI 1640 medium and incubated for 2 hrs at room temperature with 10×10^4 cpm mono-^125I-[Nle^8,18, Tyr^34(3-^125I)]bPTH(1-34)NH2 in the presence of a competing peptides of the invention at various concentrations between 10^−11 M to 10^−4 M. The cells were washed four times with ice-cold PBS and lysed with 0.1 M NaOH, and the radioactivity associated with the cells was counted in a scintillation counter. Synthesis of mono-^125I-[Nle^8,18, Tyr^34(3-^125I)]bPTH(1-34)NH2 was carried out as described in Goldman, M. E., et al., Endocrinol., 123:1468 (1988).
The binding assay was conducted with various peptides of the invention, and the Kd value (half maximal inhibition of binding of mono-^125I-[Nle^8,18, Tyr^34(3-^125I)]bPTH(1-34)NH2) for each peptide was calculated.

For `CCCC[C@H](NC(=O)[C@H](CC1CCCCC1)NC(=O)[C@H](CCC(N)=O)NC(=O)[C@@H](NC(=O)[C@H](CCC(=O)O)NC(=O)[C@H](CO)NC(=O)[C@@H](NC(=O)[C@@H](N)CO)C(C)C)[C@@H](C)CC)C(=O)N[C@@H](Cc1c[nH]cn1)C(=O)N[C@@H](CC(N)=O)C(=O)N[C@@H](CC1CCCCC1)C(=O)NCC(=O)N[C@@H](CCCCN)C(=O)N[C@@H](Cc1c[nH]cn1)C(=O)N[C@@H](CC(C)C)C(=O)NC(C)(C)C(=O)N[C@@H](CO)C(=O)N[C@@H](CCCC)C(=O)NC(C)(C)C(=O)N[C@@H](CCCNC(=N)N)C(=O)N[C@H](C(=O)N[C@@H](CCC(=O)O)C(=O)N[C@@H](Cc1c[nH]c2ccccc12)C(=O)N[C@@H](CC(C)C)C(=O)N[C@@H](CCCNC(=N)N)C(=O)N[C@@H](CCCCN)C(=O)N[C@@H](CCCCN)C(=O)N[C@@H](CC(C)C)C(=O)N[C@@H](CCC(N)=O)C(=O)N[C@@H](CC(=O)O)C(=O)N[C@H](C(=O)N[C@@H](Cc1c[nH]cn1)C(=O)N[C@@H](CC(N)=O)C(=O)N[C@@H](Cc1ccc(O)cc1)C(N)=O)C(C)C)C(C)C` [[Cha^7,11, Nle^8,18, Aib^16,19, Tyr^34]hPTH (1-34)NH2] (H-SVSEIQ[Cha][Nle]HN[Cha]GKHL[Aib]S[Nle][Aib]RVEWLRKKLQDVHNY-NH2), which Kd (Table I) is on record?
The Kd was 0.005 µM.

`CCCC[C@H](NC(=O)[C@H](CO)NC(=O)[C@H](CC(N)=O)NC(=O)[C@H](CC(C)C)NC(=O)[C@H](Cc1c[nH]cn1)NC(=O)[C@H](CCCCN)NC(=O)CNC(=O)[C@H](CC(C)C)NC(=O)[C@H](CC(N)=O)NC(=O)[C@H](Cc1c[nH]cn1)NC(=O)[C@H](CCCC)NC(=O)[C@H](CC(C)C)NC(=O)[C@H](CCC(N)=O)NC(=O)[C@@H](NC(=O)[C@H](CCC(=O)O)NC(=O)[C@H](CO)NC(=O)[C@@H](NC(=O)[C@@H](N)CO)C(C)C)[C@@H](C)CC)C(=O)N[C@@H](CCC(=O)O)C(=O)N[C@@H](CCCNC(=N)N)C(=O)N[C@H](C(=O)N[C@@H](CCC(=O)O)C(=O)N[C@@H](Cc1c[nH]c2ccccc12)C(=O)N[C@@H](CC(C)C)C(=O)N[C@@H](CCCNC(=N)N)C(=O)N[C@@H](CCCCN)C(=O)N[C@@H](CC1CCCCC1)C(=O)N[C@@H](CC(C)C)C(=O)N[C@@H](CCC(N)=O)C(=O)N[C@@H](CC(=O)O)C(=O)N[C@H](C(=O)N[C@@H](Cc1c[nH]cn1)C(=O)N[C@@H](CC(N)=O)C(=O)N[C@@H](Cc1ccccc1)C(N)=O)C(C)C)C(C)C` [[Nle^8,18, Cha^27]hPTH(1-34)NH2] (H-SVSEIQL[Nle]HNLGKHLNS[Nle]ERVEWLRK[Cha]LQDVHNF-NH2) was tested. Which Kd (Table I) did it give?
The Kd was 0.05 µM.

Which Kd (Table I) does the source give for `CC[C@H](C)[C@H](NC(=O)[C@H](CCC(=O)O)NC(=O)[C@H](CO)NC(=O)[C@@H](NC(=O)[C@@H](N)CO)C(C)C)C(=O)N[C@@H](CCC(N)=O)C(=O)N[C@@H](CC(C)C)C(=O)N[C@@H](CCSC)C(=O)N[C@@H](Cc1c[nH]cn1)C(=O)N[C@@H](CC(N)=O)C(=O)N[C@@H](CC(C)C)C(=O)NCC(=O)N[C@@H](CCCCN)C(=O)N[C@@H](Cc1c[nH]cn1)C(=O)N[C@@H](CC(C)C)C(=O)N[C@@H](CC(N)=O)C(=O)N[C@@H](CO)C(=O)N[C@@H](CCSC)C(=O)N[C@@H](CCC(=O)O)C(=O)N[C@@H](CCCNC(=N)N)C(=O)N[C@H](C(=O)N[C@@H](CCC(=O)O)C(=O)N[C@@H](Cc1c[nH]c2ccccc12)C(=O)N[C@@H](CC1CCCCC1)C(=O)N[C@@H](CCCNC(=N)N)C(=O)N[C@@H](CCCCN)C(=O)N[C@@H](CCCCN)C(=O)N[C@@H](CC1CCCCC1)C(=O)N[C@@H](CCC(N)=O)C(=O)N[C@@H](CC(=O)O)C(=O)N[C@@H](CC1CCCCC1)C(=O)N[C@@H](Cc1c[nH]cn1)C(=O)N[C@@H](CC(N)=O)C(=O)N[C@@H](Cc1ccccc1)C(N)=O)C(C)C` [[Cha^24,28,31]hPTH(1-34)NH2] (H-SVSEIQLMHNLGKHLNSMERVEW[Cha]RKK[Cha]QD[Cha]HNF-NH2) here?
Its Kd is 1 µM.

How did the Kd (Table I) turn out when `CC[C@H](C)[C@H](NC(=O)[C@H](CCC(=O)O)NC(=O)[C@H](CO)NC(=O)[C@@H](NC(=O)[C@@H](N)CO)C(C)C)C(=O)N[C@@H](CCC(N)=O)C(=O)N[C@@H](CC(C)C)C(=O)N[C@@H](CCSC)C(=O)N[C@@H](Cc1c[nH]cn1)C(=O)N[C@@H](CC(N)=O)C(=O)N[C@@H](CC(C)C)C(=O)NCC(=O)N[C@@H](CCCCN)C(=O)N[C@@H](Cc1c[nH]cn1)C(=O)N[C@@H](CC(C)C)C(=O)N[C@@H](CC(N)=O)C(=O)N[C@@H](CO)C(=O)N[C@@H](CCSC)C(=O)N[C@@H](CCC(=O)O)C(=O)N[C@@H](CCCNC(=N)N)C(=O)N[C@H](C(=O)N[C@@H](CCC(=O)O)C(=O)N[C@@H](CC1CCCCC1)C(=O)N[C@@H](CC(C)C)C(=O)N[C@@H](CCCNC(=N)N)C(=O)N[C@@H](CCCCN)C(=O)N[C@@H](CCCCN)C(=O)N[C@@H](CC(C)C)C(=O)N[C@@H](CCC(N)=O)C(=O)N[C@@H](CC(=O)O)C(=O)N[C@H](C(=O)N[C@@H](Cc1c[nH]cn1)C(=O)N[C@@H](CC(N)=O)C(=O)N[C@@H](Cc1ccccc1)C(N)=O)C(C)C)C(C)C` [[Cha^23]hPTH(1-34)NH2] (H-SVSEIQLMHNLGKHLNSMERVE[Cha]LRKKLQDVHNF-NH2) was run?
Its Kd is 0.2 µM.

With `CC[C@H](C)[C@H](NC(=O)[C@H](CCC(=O)O)NC(=O)[C@H](CO)NC(=O)[C@@H](NC(=O)[C@@H](N)CO)C(C)C)C(=O)N[C@@H](CCC(N)=O)C(=O)N[C@@H](CC(C)C)C(=O)N[C@@H](CCSC)C(=O)N[C@@H](Cc1c[nH]cn1)C(=O)N[C@@H](CC(N)=O)C(=O)N[C@@H](CC(C)C)C(=O)NCC(=O)N[C@@H](CCCCN)C(=O)N[C@@H](Cc1c[nH]cn1)C(=O)N[C@@H](CC1CCCCC1)C(=O)N[C@@H](CC(N)=O)C(=O)N[C@@H](CO)C(=O)N[C@@H](CCSC)C(=O)N[C@@H](CCC(=O)O)C(=O)N[C@@H](CCCNC(=N)N)C(=O)N[C@H](C(=O)N[C@@H](CCC(=O)O)C(=O)N[C@@H](Cc1c[nH]c2ccccc12)C(=O)N[C@@H](CC(C)C)C(=O)N[C@@H](CCCNC(=N)N)C(=O)N[C@@H](CCCCN)C(=O)N[C@@H](CCCCN)C(=O)N[C@@H](CC(C)C)C(=O)N[C@@H](CCC(N)=O)C(=O)N[C@@H](CC(=O)O)C(=O)N[C@H](C(=O)N[C@@H](Cc1c[nH]cn1)C(=O)N[C@@H](CC(N)=O)C(=O)N[C@@H](Cc1ccccc1)C(N)=O)C(C)C)C(C)C` [[Cha^15]hPTH(1-34)NH2] (H-SVSEIQLMHNLGKH[Cha]NSMERVEWLRKKLQDVHNF-NH2) as the compound, how does the Kd (Table I) read?
Its Kd is 0.005 µM.

Which Kd (Table II) does the source give for `CC[C@H](C)[C@H](NC(=O)[C@H](CO)NC(=O)[C@H](CCCCN)NC(=O)CNC(=O)[C@H](CCCCN)NC(=O)[C@H](CC(=O)O)NC(=O)[C@H](Cc1c[nH]cn1)NC(=O)[C@H](CC(C)C)NC(=O)[C@H](CC(C)C)NC(=O)[C@H](CCC(N)=O)NC(=O)[C@H](Cc1c[nH]cn1)NC(=O)[C@H](CCC(=O)O)NC(=O)[C@H](CO)NC(=O)[C@@H](NC(=O)[C@H](C)N)C(C)C)C(=O)N[C@@H](CCC(N)=O)C(=O)N[C@@H](CC(=O)O)C(=O)N[C@@H](CC(C)C)C(=O)N[C@@H](CCCNC(=N)N)C(=O)N[C@@H](CCCNC(=N)N)C(=O)N[C@@H](CCCNC(=N)N)C(=O)N[C@@H](CCC(=O)O)C(=O)N[C@@H](CC(C)C)C(=O)N[C@@H](CC(C)C)C(=O)N[C@@H](CCC(=O)O)C(=O)N[C@@H](CCCCN)C(=O)NC1(C(=O)N[C@@H](CC(C)C)C(=O)NC(C)(C)C(=O)N[C@@H](CCCCN)C(=O)N[C@@H](CC(C)C)C(=O)N[C@@H](Cc2c[nH]cn2)C(=O)N[C@H](C(=O)N[C@@H](C)C(N)=O)[C@@H](C)O)CCCCC1` [[Glu^22,25, Leu^23,28,31, Lys^26,30, Ahc^27, Aib^29]hPTHrP(1-34)NH2] (H-AVSEHQLLHDKGKSIQDLRRRELLEK[Ac6c]L[Aib]KLHTA-NH2; N-terminus assumed) here?
Its Kd is 0.23 µM.
